US20250205225A1, “METHODS OF POTENTIATING TEMOZOLOMIDE ACTIVITY AGAINST GLIOBLASTOMA CELLS” (University of Cincinnati, priority 2022, published 2025)
Like-named read-outs stand apart in the source and are kept apart here.

Key:
G76 cells [1] = test: Assessment of gamma-H2A.X (flow cytometry); format: cell-based, human; conditions: for γ-H2AX induction (DNA damage): single agent (TMZ up to 1 μM; LTZ 500 nM and 1 μM); for LTZ-mediated induction of γ-H2AX in the presence of estradiol: estradiol (250 pg/ml)
Experimental: (§1) Assessment of gamma-H2A.X: Induction of γH2A.X in G75 and G76 cells (lx 106) treated with LTZ, TMZ, and LTZ+TMZ (0-10 μM) in the presence and the absence of estradiol (250 pg/ml) was assessed using flow cytometric analysis. Based on initial assessment of the time course of γH2A.X induction, a 5 h treatment was used to capture maximal effect. Cell pellets were collected by centrifugation of the cells at 2,000×g for 5 minutes at room temperature. Cells were then washed with ice cold PBS, followed by addition of a 1:1 mixture of methanol and NP40 (300 μL) for fixation and permeabilization of the cells. Following centrifugation at 4° C. at 290×g, 100 μL of 1:250 dilution of the primary unconjugated antibody for gamma-H2A.X at room temperature were added to the cells. The cells were incubated with the primary antibody for 20 min and washed with 600 μL of 1:1 methanol and NP40 mixture. Secondary Per-CP conjugated antibody was added to the cells at a dilution of 1:1000 and incubated at room temperature in the dark for 20 minutes. Cells were washed again with 600 μL of 1:1 methanol and NP40 mixture, re-suspended in 1×PBS, and subjected to flow cytometric analysis with the excitation wavelength of 488 nm (Beckman CytoFlex flow cytometer). […] The scatter plots were analyzed using CytExpert version 2.3 to assess the percentage of cells positive for γH2A.X versus the isotype control.

G75 cells [2] = test: Assessment of gamma-H2A.X (flow cytometry); format: cell-based, human; conditions: for γ-H2AX induction (DNA damage): single agent (TMZ up to 1 μM; LTZ 500 nM and 1 μM); for LTZ-mediated induction of γ-H2AX in the presence of estradiol: estradiol (250 pg/ml)
Experimental: as §1

G76 cells [3] = test: Apoptosis induction, Caspase-Glo 3/7; format: cell-based, human; conditions: for EC50: Homo sapiens; for induction of apoptosis (caspase 3/7), in words: TMZ up to 5 μM
Experimental: (§2) Apoptosis induction assay using Caspase-Glo® 3/7 system: G75 and G76 cells were employed to assess the effects of LTZ, TMZ, and LTZ+TMZ combination treatment on induction of apoptosis through caspase 3/7 activation. Cells were seeded at a density of 1.5×10^4 cells per well in a translucent walled, clear bottom, 96-well plate. Promega Caspase-Glo® 3/7 Assay system was used to assess the caspase 3/7 levels in cells treated with LTZ, TMZ, LTZ (0.04 μM)+TMZ (0-5 μM), and vehicle (0.1% DMSO). Cells were treated for 24 h after plating. Caspase-Glo® 3/7 3D substrate and Caspase-Glo® 3/7 3D buffer was mixed to form a 10 mL reaction mixture and 100 μL of the mixture was added to each well. The reaction was allowed to proceed at room temperature in the dark for 30 minutes. The luminescence readings were carried out 24 h after the treatment using Synergy™ HTX Multi-Mode Microplate Reader. The experiment was repeated in presence of estradiol to assess the effect of estradiol on caspase induction in G75 and G76 cells.

G75 cells [4] = test: Apoptosis induction, Caspase-Glo 3/7; format: cell-based, human; conditions: for EC50: Homo sapiens; for induction of apoptosis (caspase 3/7), in words: TMZ up to 5 μM
Experimental: as §2

BT-142 cells [5] = test: Neurosphere growth inhibition; format: cell-based, human; conditions: for median neurosphere diameter: 72 h, LTZ 40 nM, TMZ 1 μM, alone or combined
Experimental: (§3) Neurosphere Growth Inhibition: Since G43 and BT-142 cells form neurospheres in culture medium, the effects of LTZ and TMZ on the growth of the neurosphere. Cells (1×10^4) were plated and 24 hours later treated with LTZ (0-2 μM), TMZ (0-100 μM) or were also determined. Cells were treated with LTZ (0.04 μM)+TMZ (0-10 μM) for 72 h cells, with DMSO (0.1%) serving as vehicle control. Neurosphere dimensions were measured using Leica Stereomicroscope in bright field setting. The effect of addition of estradiol (250 pg/ml) on the neurosphere growth was also determined.

G43 cells [6] = test: Neurosphere growth inhibition; format: cell-based, human; conditions: for neurosphere diameter: 72 h, LTZ 40 nM, TMZ 1 μM, alone or combined, in mm
Experimental: as §3

[7] = test system: patient-derived GBM lines (G76, BT-142, G75, G43); test: Cell viability assay (CyQuant LDH), all four lines; format: cell-based, human; conditions: for IC50: Homo sapiens, BT142, 72 h
Experimental: (§4) Cell viability Assay: The cytotoxic effects of TMZ, LTZ, and various combinations of the two agents were evaluated using the CyQuant™ Lactate Dehydrogenase (LDH) assay (ThermoFisher Scientific). This assay measures the release of LDH, a cytosolic enzyme, into the extracellular medium resulting from damage to the plasma membrane. Cells (1.4×10^4) were plated in 96 well plates in serum-free medium. Twenty-four hours after seeding, cells were treated with TMZ (0-100 μM), LTZ (0-2 μM), or TMZ (0-10 μM)+LTZ (0.04 μM). Dimethyl sulfoxide (0.1%) was used as a vehicle control. The effect of adding estradiol (250 pg/ml) on cell viability was also determined.

G75 cells [8] = test: Cell viability assay (CyQuant LDH); format: cell-based; conditions: Homo sapiens, 72 h, single agent, read-out: IC50 (cytotoxicity)
Experimental: as §4

BT-142 cells [9] = test: Cell viability assay (CyQuant LDH); format: cell-based; conditions: Homo sapiens, BT142, 72 h, single agent, read-out: IC50 (cytotoxicity)
Experimental: as §4

G76 cells [10] = test: Cell viability assay (CyQuant LDH); format: cell-based, human; conditions: 72 h, single agent, read-out: IC50 (cytotoxicity)
Experimental: as §4

G43 cells [11] = test: Cell viability assay (CyQuant LDH); format: cell-based, human; conditions: 72 h, single agent, read-out: IC50 (cytotoxicity)
Experimental: as §4

[12] = cited from earlier work
[13] = single agent, Emax model, read-out: EC50 for caspase 3/7 induction
[14] = LTZ 40 nM alone or combined with TMZ
[15] = with letrozole 40 nM, read-out: EC50 for caspase 3/7 induction by temozolomide in the presence of letrozole (40 nM)

## N#Cc1ccc(C(c2ccc(C#N)cc2)n2cncn2)cc1 [LTZ, 4,4′-((1H-1,2,4-triazol-1-yl)methylene)dibenzonitrile]
G76 cells [1]; 5 h
  γ-H2AX induction (DNA damage): considerably increased γ-H2AX levels
G76 cells [1]; 5 h, listed as Letrozole
  γ-H2AX induction (DNA damage): caused DNA damage
G76 cells [1]
  LTZ-mediated induction of γ-H2AX in the presence of estradiol: abrogated in the presence of estradiol
G76 cells [1]; listed as letrozole
  LTZ-mediated induction of γ-H2AX in the presence of estradiol: prevented letrozole-mediated DNA damage
G75 cells [2]; 5 h
  γ-H2AX induction (DNA damage): considerably increased γ-H2AX levels
G75 cells [2]; 5 h, listed as Letrozole
  γ-H2AX induction (DNA damage): caused DNA damage
G75 cells [2]
  LTZ-mediated induction of γ-H2AX in the presence of estradiol: abrogated in the presence of estradiol
G75 cells [2]; listed as letrozole
  LTZ-mediated induction of γ-H2AX in the presence of estradiol: prevented letrozole-mediated DNA damage
G76 cells [3]; [13]
  EC50: 1.8 ± 0.312 µM
G76 cells [3]; estradiol present
  letrozole-mediated induction of apoptosis in the presence of estradiol: prevented letrozole-mediated DNA damage and induction of apoptosis
G76 cells [3]; single agent
  induction of apoptosis (caspase 3/7), in words: very effective in inducing apoptosis in a concentration-dependent manner
G75 cells [4]; [13]
  EC50: 5.07 ± 1.1 µM
G75 cells [4]; estradiol present
  letrozole-mediated induction of apoptosis in the presence of estradiol: prevented letrozole-mediated DNA damage and induction of apoptosis
G75 cells [4]; single agent
  induction of apoptosis (caspase 3/7), in words: very effective in inducing apoptosis in a concentration-dependent manner
BT-142 cells [5]
  median neurosphere diameter: 1.1±0.077 mm
BT-142 cells [5]; [14]
  neurosphere growth inhibition (in words): minimally impacted neurosphere growth
BT-142 cells [5]; estradiol (250 pg/ml) added
  letrozole effects in neurosphere growth inhibition assay with estradiol added: completely abrogated the letrozole effects
G43 cells [6]
  neurosphere diameter: 1.85±0.13
G43 cells [6]; [14]
  neurosphere growth inhibition (in words): minimally impacted neurosphere growth
G43 cells [6]; estradiol (250 pg/ml) added
  letrozole effects in neurosphere growth inhibition assay with estradiol added: completely abrogated the letrozole effects
[7]; single agent, read-out: IC50 (cytotoxicity), range over the cell lines
  IC50: 0.08 to 0.67 µM
[7]; estradiol (250 pg/ml) added to the culture media
  letrozole effects in cell viability assay with estradiol added: completely abrogated the letrozole effects

## Cn1nnc2c(C(N)=O)ncn2c1=O [TMZ, 4-methyl-5-oxo-2,3,4,6,8-pentazabicyclo[4.3.0]nona-2,7,9-triene-9-carboxamide]
G76 cells [1]; 5 h, LTZ 40 nM + TMZ 0.1 μM
  γ-H2AX induction (DNA damage), TMZ combined with LTZ: significantly enhanced DNA damage by temozolomide
G76 cells [1]; 5 h
  γ-H2AX induction (DNA damage): noticeable induction of γ-H2AX
G75 cells [2]; 5 h, LTZ 40 nM + TMZ 0.1 μM
  γ-H2AX induction (DNA damage), TMZ combined with LTZ: significantly enhanced DNA damage by temozolomide
G75 cells [2]; 5 h
  γ-H2AX induction (DNA damage): not in G75 cells
G76 cells [3]; [13]
  EC50: 6.4 µM
G76 cells [3]; [15]
  EC50: 1.8 µM
G76 cells [3]; single agent
  induction of apoptosis (caspase 3/7), in words: induced apoptosis in G76 cells
G76 cells [3]; with LTZ 40 nM
  TMZ-mediated apoptosis (caspase 3/7) with LTZ (40 nM): striking increase in TMZ-mediated apoptosis
G75 cells [4]; [13]
  EC50: 93.8 µM
G75 cells [4]; [15]
  EC50: 5.1 µM
G75 cells [4]; single agent
  induction of apoptosis (caspase 3/7), in words: not in G75 cells
G75 cells [4]; with LTZ 40 nM
  TMZ-mediated apoptosis (caspase 3/7) with LTZ (40 nM): striking increase in TMZ-mediated apoptosis
G75 cells [8]
  IC50: 107 µM
BT-142 cells [9]
  IC50: 15.3 µM
G76 cells [10]
  IC50: 1.31 µM
G76 cells [10]; Homo sapiens
  IC50: 1.3 µM
G43 cells [11]
  IC50: 165 µM
G43 cells [11]; Homo sapiens
  IC50: 165 µM
BT-142 cells [5]
  median neurosphere diameter: 0.9±0.023 mm
G43 cells [6]
  neurosphere diameter: 1.6±0.085
[12]; doses of 100-200 mg/m^2, listed as temozolomide
  peak plasma levels: 25 to 50 µM
[12]; intracerebral microdialysis, peritumoral
  partitioning of the drug from plasma to the brain interstitial fluid: 13-17%
[12]; intracerebral microdialysis, approximately
  brain interstitial fluid (peritumoral) concentrations: 3 to 8 µM
[7]; with LTZ 40 nM, read-out: TMZ IC50 in the presence of LTZ (40 nM), range for all four cell lines
  IC50: 0.16 to 0.69 µM
